This note sets out measurements from PubChem BioAssay (NCI).

Test systems include NCI-H522 lung; A498 renal; KM12 colon; SK-OV-3 ovarian; TK-10 renal; HOP-92 NSCLC; SK-MEL-5 melanoma; DU-145 prostate.
What all share (test): DTP human tumour cell line panel, 48 h

As usually defined, the GI50 is the concentration at which growth is held to half of that of the control. In general, TGI refers to the concentration giving total growth inhibition. Read a low TGI as more potent growth arrest.

Each structure is given as a SMILES string. Where “and” joins values, the source holds several entries; their conditions need not be identical. Equal entries are not always repeated.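 How tested: cells in 96-well plates exposed to compound for 48 hours at five concentrations. GI50 is the concentration that inhibits growth by half. TGI: total growth inhibition.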

Consider `COc1ccc(-c2cc(-c3cc(OC)c(OC)c(OC)c3)c(C#N)c(N3CCOCC3)n2)cc1O`, for which the GI50 in the assay on NCI-H522 lung was 5140 nM; in the assay with A498 renal it was > 21400 nM; in the assay with KM12 colon, 3060 nM; in the assay on SK-OV-3 ovarian, 14800 nM; in the assay with TK-10 renal, > 59800 nM; in the assay with HOP-92 NSCLC it was 5670 nM. The GI50 in the assay with SK-MEL-5 melanoma is 3300 nM; with DU-145 prostate, 5300 nM. In addition, the TGI in the assay on NCI-H522 lung was > 53.6 µM; in the assay with A498 renal, > 77.9 µM; in the assay on KM12 colon, > 100 µM; with SK-OV-3 ovarian, > 100 µM; in the assay with TK-10 renal it was > 100 µM; in the assay on HOP-92 NSCLC, > 100 µM. The figures for the TGI in the assay on SK-MEL-5 melanoma and in the assay on DU-145 prostate were > 75.2 µM and > 100 µM, respectively.

For `NC(=O)/C=C/NC(=O)/C=N\O`, the TGI in the assay on NCI-H522 lung, with A498 renal, in the assay with KM12 colon, in the assay with SK-OV-3 ovarian, in the assay with HOP-92 NSCLC and in the assay with SK-MEL-5 melanoma was > 100 µM in each case. Moreover, the TGI in the assay on DU-145 prostate is > 100 µM.

With `CCCCCC/C=C\CCCCCCCCCC1=CC(=O)C=C(OC)C1=O`, the TGI was 4.58 µM with NCI-H522 lung; 13.5 µM in the assay with A498 renal; 19.2 µM in the assay on KM12 colon; 16 µM with SK-OV-3 ovarian; 18.8 µM with TK-10 renal; 8.05 µM with HOP-92 NSCLC. Further, the TGI in the assay with SK-MEL-5 melanoma was 5.54 µM; in the assay with DU-145 prostate, 38 µM.

In the case of `COc1ccc(-c2ccc(/C=N/n3c(C)nn(CN4CCN(C)CC4)c3=S)o2)c([N+](=O)[O-])c1`, the GI50 in the assay with NCI-H522 lung was 65000 nM; in the assay on KM12 colon, 17700 nM; in the assay with SK-OV-3 ovarian, 45000 nM; in the assay on TK-10 renal it was 24300 nM; in the assay on DU-145 prostate, > 100000 nM. The TGI in the assay with NCI-H522 lung was > 100 µM; in the assay with KM12 colon it was 42.9 µM; with SK-OV-3 ovarian it was > 100 µM; in the assay on TK-10 renal, 74.7 µM; with DU-145 prostate, > 100 µM.

Turning to `COc1cnc2c(c1)C(=O)c1c-2n(CCCN2CCCC2)c(=O)c2cc(F)ccc12`, the GI50 in the assay with NCI-H522 lung was 81.9 nM; with A498 renal it was 344 nM; with KM12 colon, 284 nM; in the assay on SK-OV-3 ovarian, 272 nM; with TK-10 renal it was 460 nM; in the assay on HOP-92 NSCLC it was 531 nM. Further, the GI50 was 309 nM with SK-MEL-5 melanoma and 211 nM with DU-145 prostate. The TGI in the assay with NCI-H522 lung is 1.23 µM; in the assay on A498 renal, 1.65 µM; with KM12 colon, 4.73 µM; with SK-OV-3 ovarian, 0.986 µM; in the assay with TK-10 renal, 2.13 µM; in the assay on HOP-92 NSCLC it was 7.8 µM. Moreover, the TGI with SK-MEL-5 melanoma worked out at 1.29 µM; with DU-145 prostate, 1.34 µM.

Take `CC(=O)OCC1O[C@@H]([S-])C(OC(C)=O)[C@H](OC(C)=O)[C@@H]1OC(C)=O.[Au+].c1ccc(CN2[CH-]N(Cc3ccccc3)C(c3ccccc3)=C2c2ccccc2)cc1`: the GI50 in the assay with NCI-H522 lung is 1580 nM; in the assay with A498 renal, 2060 nM; in the assay with KM12 colon, 2090 nM; in the assay with SK-OV-3 ovarian, 3390 nM; in the assay on TK-10 renal, 1860 nM; in the assay on HOP-92 NSCLC, 1740 nM. Moreover, the results for the GI50 in the assay with SK-MEL-5 melanoma and in the assay on DU-145 prostate were 1790 nM and 1890 nM, respectively. The TGI is 3.66 µM in the assay on NCI-H522 lung; 4.02 µM in the assay with A498 renal; 4.27 µM with KM12 colon; 10.2 µM with SK-OV-3 ovarian; 3.42 µM in the assay with TK-10 renal; 3.38 µM in the assay with HOP-92 NSCLC. Further, the TGI with SK-MEL-5 melanoma is 3.28 µM; in the assay with DU-145 prostate, 3.54 µM.

As to `COc1cc2nc3cc([N+](=O)[O-])ccc3c(NCCCNCC(C)(C)O)c2cc1OC`, the GI50 with NCI-H522 lung was 181 nM; with A498 renal, 216 nM; in the assay on KM12 colon it was 410 nM; with SK-OV-3 ovarian it was 506 nM; in the assay on TK-10 renal, 500 nM; in the assay with HOP-92 NSCLC it was 225 nM. In addition, the GI50 was 520 nM in the assay on SK-MEL-5 melanoma and 324 nM in the assay with DU-145 prostate. The TGI was 0.425 µM in the assay on NCI-H522 lung; 1.33 µM in the assay on A498 renal; 1.6 µM with KM12 colon; 2.59 µM with SK-OV-3 ovarian; 2.49 µM with TK-10 renal; 0.726 µM in the assay with HOP-92 NSCLC. The results for the TGI with SK-MEL-5 melanoma and with DU-145 prostate were 1.76 µM and 1.11 µM, respectively.

On to `O=C(O)c1ccc2c(c1)nc(Nc1cccc(Cl)c1)c1ccncc12`, for which the GI50 with NCI-H522 lung was 1980 nM and 1390 nM; in the assay with A498 renal it was 231 nM and 1990 nM; in the assay with KM12 colon it was 3430 nM and 4430 nM; in the assay with SK-OV-3 ovarian, 2980 nM and 2420 nM; in the assay with TK-10 renal it was 3670 nM and 2130 nM; with HOP-92 NSCLC, 325 nM and 445 nM. In addition, the GI50 was 1860 nM and 2080 nM with SK-MEL-5 melanoma; 4920 nM and 6020 nM in the assay on DU-145 prostate. The TGI is 6.42 µM and 4.51 µM in the assay with NCI-H522 lung; 2.46 µM and 6.66 µM in the assay on A498 renal; 18.1 µM and > 10 µM with KM12 colon; 11.6 µM and 7.52 µM with SK-OV-3 ovarian; 25.2 µM and > 10 µM in the assay on TK-10 renal; 3.77 µM and 4.06 µM with HOP-92 NSCLC. Besides, the TGI was 4.76 µM and 5.38 µM with SK-MEL-5 melanoma; 47.3 µM and > 10 µM with DU-145 prostate.

As to `O=C(CCCCCCSc1nc(-c2ccc(Cl)cc2)cc(-c2ccc(Cl)cc2)n1)NO`, the GI50 is 970 nM in the assay with NCI-H522 lung; 1030 nM in the assay on A498 renal; 2020 nM in the assay on KM12 colon; 1320 nM with SK-OV-3 ovarian; 1610 nM in the assay with TK-10 renal; 1610 nM in the assay on HOP-92 NSCLC. The GI50 in the assay with SK-MEL-5 melanoma is 1190 nM; in the assay on DU-145 prostate, 1460 nM. In addition, the TGI in the assay with NCI-H522 lung was 4.45 µM; in the assay with A498 renal, 4.05 µM; with KM12 colon, > 50 µM; in the assay on SK-OV-3 ovarian, 4.19 µM; in the assay with TK-10 renal it was 11.9 µM; in the assay on HOP-92 NSCLC, 8.39 µM. Moreover, the TGI came to 2.74 µM in the assay with SK-MEL-5 melanoma and 4.9 µM in the assay with DU-145 prostate.

With `CCc1nc(N)nc(N)c1-c1ccc(NCCc2ccccc2)c([N+](=O)[O-])c1`, the TGI with A498 renal is 43.4 µM; in the assay with KM12 colon, > 57 µM; in the assay on SK-OV-3 ovarian, > 74.6 µM; in the assay on TK-10 renal, > 69.7 µM; with HOP-92 NSCLC it was 35.7 µM; in the assay on SK-MEL-5 melanoma, 10.1 µM. For the same molecule, in the assay on DU-145 prostate, the TGI is > 53.8 µM.
